Measured values from US12692261B2, “Substituted heterocyclic compounds and therapeutic uses thereof” (Bayer Aktiengesellschaft, priority 2020, dated 2026).

Experiments:
full-length human CSNK1D = molecular target: T1, full-length human CSNK1D (Homo sapiens, UniProt P48730); test: CSNK1D Assay (ADP-Glo, 1 μM ATP); type: biochemical; details: Table 3, read-out: CSNK1D IC50 [mol/l] (median)
T1 construct: N-terminal Glutathion-S-Transferase (GST) and full-length human CSNK1D; purchased Life Technologies PV3665; host or cells: baculovirus infected insect cells
T1 sequence (P48730 whole entry): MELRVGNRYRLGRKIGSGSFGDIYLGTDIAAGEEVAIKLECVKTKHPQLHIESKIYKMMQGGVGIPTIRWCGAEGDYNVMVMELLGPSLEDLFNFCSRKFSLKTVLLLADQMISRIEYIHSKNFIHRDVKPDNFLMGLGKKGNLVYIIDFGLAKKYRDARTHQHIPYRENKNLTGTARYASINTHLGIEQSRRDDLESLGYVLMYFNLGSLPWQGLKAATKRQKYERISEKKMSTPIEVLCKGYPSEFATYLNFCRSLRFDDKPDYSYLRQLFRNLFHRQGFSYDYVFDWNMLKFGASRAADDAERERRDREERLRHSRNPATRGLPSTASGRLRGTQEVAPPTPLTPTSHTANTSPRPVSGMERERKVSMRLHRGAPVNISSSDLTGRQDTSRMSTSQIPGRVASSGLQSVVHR
Method in brief: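 Enzyme is N-terminal GST-tagged full-length human CSNK1D from baculovirus-infected insect cells (typically about 0.5 ng/μL), with a biotinylated peptide substrate and 1 μM ATP. Compound pre-incubated 15 min at 22° C in HEPES pH 7.5 buffer; ADP formed is read by ADP-Glo luminescence.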

[1] = molecular target: T2, full-length human CSNK1A1 (Homo sapiens, UniProt P48729); test: CSNK1A1 High ATP Assay (ADP-Glo, 1 mM ATP); type: biochemical; details: Table 3, read-out: CSNK1A1 high ATP assay IC50 [mol/l] (median);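 further: 30 min kinase reaction at 22 °C with 100 µM peptide substrate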
T2 construct: N-terminal Glutathion-S-Transferase (GST) and full-length human CSNK1A1; purchased Life Technologies PV4174; host or cells: baculovirus infected insect cells
T2 sequence (P48729 whole entry): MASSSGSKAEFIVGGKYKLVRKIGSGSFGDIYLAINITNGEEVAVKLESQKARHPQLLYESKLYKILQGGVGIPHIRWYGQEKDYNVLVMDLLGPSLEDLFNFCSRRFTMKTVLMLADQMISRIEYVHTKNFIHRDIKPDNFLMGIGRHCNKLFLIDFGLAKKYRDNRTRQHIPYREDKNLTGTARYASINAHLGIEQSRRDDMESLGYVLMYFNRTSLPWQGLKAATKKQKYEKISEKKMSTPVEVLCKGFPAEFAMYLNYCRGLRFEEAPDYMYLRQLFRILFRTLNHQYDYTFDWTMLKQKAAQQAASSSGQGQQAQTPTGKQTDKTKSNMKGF
Method in brief: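 GST-tagged full-length human CSNK1A1 from baculovirus-infected insect cells (typically about 0.4 ng/μL), pre-incubated with compound 15 min at 22 °C. Reaction with biotinylated peptide biotin-Ahx-KRRRAL-pS-VASLPGL at 1 mM ATP. ADP formed read by ADP-Glo luminescence.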

SMILES	IC50 (full-length human CSNK1D)	IC50 [1]
O=C(Nc1cc(-c2[nH]c3c(O[C@H]4CCOC4)ncnc3c2-c2ccccn2)ccn1)C(CC(F)F)c1ccc(F)cc1 (mixture of isomers) [Example 72, (2RS)-4,4-difluoro-2-(4-fluorophenyl)-N-{4-[4-{[(3S)-oxolan-3-yl]oxy}-7-(pyridin-2-yl)-5H-pyrrolo[3,2-d]pyrimidin-6-yl]pyridin-2-yl}butanamide]	7.3 nM	7.1 nM
Cc1cnc2c(-c3ccccn3)c(-c3ccnc(NC(=O)C(CC(F)F)c4ccc(F)cc4)c3)[nH]c2n1 (single isomer, unassigned; (+)) [Example 86, (+)-4,4-difluoro-2-(4-fluorophenyl)-N-{4-[3-methyl-7-(pyridin-2-yl)-5H-pyrrolo[2,3-b]pyrazin-6-yl]pyridin-2-yl}butanamide]	6.16 nM	2.89 nM
O=C(Nc1cc(-c2[nH]c3c(OC[C@@H]4COCCO4)cc(F)nc3c2-c2ccccn2)ccn1)C(CC(F)F)c1ccc(F)cc1 (single isomer, unassigned) [Example 58, (2R or S)—N-{4-[7-{[(2S)-1,4-dioxan-2-yl]methoxy}-5-fluoro-3-(pyridin-2-yl)-1H-pyrrolo[3,2-b]pyridin-2-yl]pyridin-2-yl}-4,4-difluoro-2-(4-fluorophenyl)butanamide]	3.03 nM	3.56 nM
O=C(Nc1cc(-c2[nH]c3ncc(F)nc3c2-c2ccccn2)ccn1)C(CC(F)F)c1ccc(F)cc1 (racemic) [Example 62, (2RS)-4,4-difluoro-2-(4-fluorophenyl)-N-{4-[2-fluoro-7-(pyridin-2-yl)-5H-pyrrolo[2,3-b]pyrazin-6-yl]pyridin-2-yl}butanamide]	8.9 nM	3.92 nM
O=C(Nc1cc(-c2[nH]c3ccnnc3c2-c2ccccn2)ccn1)C(CC(F)F)c1ccc(F)cc1 (single isomer, unassigned) [Example 66, (2R or 2S)-4,4-difluoro-2-(4-fluorophenyl)-N-{4-[7-(pyridin-2-yl)-5H-pyrrolo[3,2-c]pyridazin-6-yl]pyridin-2-yl}butanamide]	4.59 nM	2.43 nM
COc1cnc2c(-c3ccccn3)c(-c3ccnc(NC(=O)C(CC(F)F)c4ccc(F)cc4)c3)[nH]c2c1 (single isomer, unassigned) [Example 83, 4,4-difluoro-2-(4-fluorophenyl)-N-{4-[6-methoxy-3-(pyridin-2-yl)-1H-pyrrolo[3,2-b]pyridin-2-yl]pyridin-2-yl}butanamide]	35.3 nM	9.86 nM
O=C(Nc1cc(-c2[nH]c3ncc(F)nc3c2-c2ccccn2)ccn1)C(CC(F)F)c1ccc(F)cc1 (single isomer, unassigned) [Example 63, (2R or S)-4,4-difluoro-2-(4-fluorophenyl)-N-{4-[2-fluoro-7-(pyridin-2-yl)-5H-pyrrolo[2,3-b]pyrazin-6-yl]pyridin-2-yl}butanamide]	3.77 nM	1.48 nM
O=C(Nc1cc(-c2[nH]c3ccnnc3c2-c2ccccn2)ccn1)C(CC(F)F)c1ccc(F)cc1 (single isomer, unassigned) [Example 67, (2R or S)-4,4-difluoro-2-(4-fluorophenyl)-N-{4-[7-(pyridin-2-yl)-5H-pyrrolo[3,2-c]pyridazin-6-yl]pyridin-2-yl}butanamide]	29.7 nM	22 nM
O=C(Nc1cc(-c2[nH]c3cc(F)cnc3c2-c2ccccn2)ccn1)C(CO)c1ccc(F)cc1 (racemic) [Example 71, (2RS)—N-(4-(6-fluoro-3-(pyridin-2-yl)-1H-pyrrolo[3,2-b]pyridin-2-yl)pyridin-2-yl)-2-(4-fluorophenyl)-3-hydroxypropanamide]	12.8 nM	8.21 nM
O=C(Nc1cc(-c2[nH]c3c(O[C@H]4CCOC4)ncnc3c2-c2ccccn2)ccn1)C(CC(F)F)c1ccc(F)cc1 (single isomer, unassigned) [Example 73, (2R or S)-4,4-difluoro-2-(4-fluorophenyl)-N-{4-[4-{[(3S)-oxolan-3-yl]oxy}-7-(pyridin-2-yl)-5H-pyrrolo[3,2-d]pyrimidin-6-yl]pyridin-2-yl}butanamide]	4.02 nM	4.16 nM
O=C(Nc1cc(-c2[nH]c3c(OCC4CCCO4)cc(F)nc3c2-c2ccccn2)ccn1)C(CC(F)F)c1ccc(F)cc1 (racemic) [Example 61, (2RS)-4,4-difluoro-N-{4-[5-fluoro-7-{[(2RS)-oxolan-2-yl]methoxy}-3-(pyridin-2-yl)-1H-pyrrolo[3,2-b]pyridin-2-yl]pyridin-2-yl}-2-(4-fluorophenyl)butanamide]	8.79 nM	11.1 nM
O=C(Nc1cc(-c2[nH]c3c(N4CCNCC4)ccnc3c2-c2ccccn2)ccn1)C(CC(F)F)c1ccc(F)cc1 (racemic) [Example 92, (2RS)-4,4-difluoro-2-(4-fluorophenyl)-N-{4-[7-(piperazin-1-yl)-3-(pyridin-2-yl)-1H-pyrrolo[3,2-b]pyridin-2-yl]pyridin-2-yl}butanamide]	6.27 nM	2.35 nM
O=C(Nc1cc(-c2[nH]c3c(OC[C@H]4COCCO4)cc(F)nc3c2-c2ccccn2)ccn1)C(CC(F)F)c1ccc(F)cc1 (single isomer, unassigned) [Example 52, (2R or S)—N-{4-[7-{[(2R)-1,4-dioxan-2-yl]methoxy}-5-fluoro-3-(pyridin-2-yl)-1H-pyrrolo[3,2-b]pyridin-2-yl]pyridin-2-yl}-4,4-difluoro-2-(4-fluorophenyl)butanamide]	23.4 nM	17.2 nM
O=C(Nc1cc(-c2[nH]c3nc(F)cnc3c2-c2ccccn2)ccn1)C(CC(F)F)c1ccc(F)cc1 (racemic) [Example 60, (2RS)-4,4-difluoro-2-(4-fluorophenyl)-N-{4-[3-fluoro-7-(pyridin-2-yl)-5H-pyrrolo[2,3-b]pyrazin-6-yl]pyridin-2-yl}butanamide]	12.5 nM	5.81 nM
O=C(Nc1cc(-c2[nH]c3c(OC[C@H]4COCCO4)cc(F)nc3c2-c2ccccn2)ccn1)C(CC(F)F)c1ccc(F)cc1 (single isomer, unassigned) [Example 51, (2R or S)—N-{4-[7-{[(2R)-1,4-dioxan-2-yl]methoxy}-5-fluoro-3-(pyridin-2-yl)-1H-pyrrolo[3,2-b]pyridin-2-yl]pyridin-2-yl}-4,4-difluoro-2-(4-fluorophenyl)butanamide]	4.1 nM	4.65 nM
O=C(Nc1cc(-c2[nH]c3ccnnc3c2-c2ccccn2)ccn1)C(CC(F)F)c1ccc(F)cc1 (racemic) [Example 65, (2RS)-4,4-difluoro-2-(4-fluorophenyl)-N-{4-[7-(pyridin-2-yl)-5H-pyrrolo[3,2-c]pyridazin-6-yl]pyridin-2-yl}butanamide]	5.62 nM	2.75 nM
O=C(Nc1cc(-c2[nH]c3ccc(Cl)nc3c2-c2ccccn2)ccn1)C(CC(F)F)c1ccc(F)cc1 (racemic) [Example 70, (2RS)—N-{4-[5-chloro-3-(pyridin-2-yl)-1H-pyrrolo[3,2-b]pyridin-2-yl]pyridin-2-yl}-4,4-difluoro-2-(4-fluorophenyl)butanamide]	9.21 nM	5.43 nM
O=C(Nc1cc(-c2[nH]c3c(N4CCOCC4)cc(F)nc3c2-c2ccccn2)ccn1)C(CC(F)F)c1ccc(F)cc1 (racemic) [Example 69, (2RS)-4,4-difluoro-N-{4-[5-fluoro-7-(morpholin-4-yl)-3-(pyridin-2-yl)-1H-pyrrolo[3,2-b]pyridin-2-yl]pyridin-2-yl}-2-(4-fluorophenyl)butanamide]	9.76 nM	10.4 nM
